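Each compound was tested at five concentrations against cells in 96-well plates for 48 hours. The concentration for 50% growth inhibition is given as GI50.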 Calls of active or inactive are those of the source. Rule as the data show it: active = GI50 up to about 1.1 µM and inactive = higher. Bounds are passed on as bounds.

Among the test systems are BT-549; COLO 205; DU-145; HL-60; HOP-62; HT-29; LOX IMVI; MCF7; MDA-MB-435; OVCAR-4; RXF 393; SF-539; SK-MEL-28; T47D; U-251; UO-31; EKVX; IGROV-1; PC-3.
Common to all, as to assay: NCI-60 cell line screen, 48 h

With `Nc1ncnc2c1ncn2-c1ccc([N+](=O)[O-])cn1`, the GI50 with BT-549, in the test on COLO 205, in the test on DU-145, in the test on HL-60, with HOP-62 and in the test on HT-29 was > 100 µM (inactive) in each case. Also, the GI50 with LOX IMVI, in the test with MCF7, in the test on MDA-MB-435, in the test on OVCAR-4, with RXF 393 and in the test on SF-539 was > 100 µM (inactive) in each case. The GI50 in the test with SK-MEL-28, in the test with T47D, in the test with U-251 and in the test on UO-31 was > 100 µM (inactive) each time.

For the compound `C[C@H](c1ccccc1)n1c(N)c(-c2nc3ccccc3s2)c2ccc([N+](=O)[O-])cc2c1=O`, the GI50 was 11.5 µM (inactive) with BT-549; 5.43 µM (inactive) with COLO 205; 2.31 µM (inactive) in the test on DU-145; 25.1 µM (inactive) in the test on EKVX; 0.327 µM (active) in the test on HL-60; 11.6 µM (inactive) in the test with HOP-62. Moreover, the GI50 with HT-29 is 5.37 µM (inactive); in the test on IGROV-1, 8.13 µM (inactive); with LOX IMVI it was 4.46 µM (inactive); in the test on MCF7, 9.27 µM (inactive); in the test on MDA-MB-435, 9.66 µM (inactive); in the test with OVCAR-4, 4.34 µM (inactive). Moreover, the GI50 in the test on PC-3 is 3.09 µM (inactive); in the test with SF-539 it was 16.9 µM (inactive); in the test with SK-MEL-28, 3 µM (inactive); in the test on T47D, 1.58 µM (inactive); in the test with U-251 it was 3.66 µM (inactive); in the test with UO-31 it was 3.83 µM (inactive).

For `COc1ccc(N2C(=O)C3c4[nH]c5ccccc5c4C4C(C)CCCC4C3C2=O)cc1` (configuration not stated), the GI50 with BT-549 was 3.64 µM (inactive); in the test with COLO 205, > 50.7 µM (inactive); in the test on DU-145 it was > 83 µM (inactive); in the test on EKVX, > 39.4 µM (inactive); in the test with HOP-62 it was 23.6 µM (inactive); in the test on HT-29 it was 29.7 µM (inactive). Besides, the GI50 was 10 µM (inactive) with IGROV-1; 46.5 µM (inactive) in the test on LOX IMVI; 37.2 µM (inactive) in the test on MCF7; 3.46 µM (inactive) in the test with MDA-MB-435; 33.7 µM (inactive) in the test with OVCAR-4; 17.7 µM (inactive) in the test with PC-3. The GI50 in the test with RXF 393 is > 26.6 µM (inactive); in the test with SF-539, > 43.4 µM (inactive); in the test on SK-MEL-28, > 71.1 µM (inactive); with T47D, > 78.7 µM (inactive); in the test with U-251, > 57.7 µM (inactive); with UO-31 it was > 76.7 µM (inactive).

Take `N#CC(Cc1ccccc1Br)N(CCC1=CCCCC1)C(c1ccccc1)c1ccccc1` (configuration not stated): the GI50 was > 100 µM (inactive) with BT-549; 50.8 µM (inactive) in the test on COLO 205; > 100 µM (inactive) in the test with DU-145; 51.4 µM (inactive) in the test on EKVX; > 100 µM (inactive) in the test on HOP-62; 32.9 µM (inactive) in the test on HT-29. In addition, the GI50 in the test on IGROV-1 was 52.1 µM (inactive); in the test with MCF7, 52.4 µM (inactive); in the test on MDA-MB-435, 30.4 µM (inactive); with OVCAR-4, 94 µM (inactive); with PC-3, > 100 µM (inactive); in the test with RXF 393, 71.6 µM (inactive). In addition, the GI50 in the test with SK-MEL-28 is > 100 µM (inactive); in the test with T47D it was 38.3 µM (inactive); in the test on U-251, 83.8 µM (inactive); with UO-31, 83.2 µM (inactive).

`COc1ccc(/N=C2\C(=N/c3ccc(OC)cc3)N(c3ccccc3[N+](=O)[O-])C(=S)N2c2ccc(OC)cc2)cc1`: the GI50 in the test on BT-549 is 34.4 µM (inactive); in the test on COLO 205, 17.1 µM (inactive); with DU-145, > 100 µM (inactive); in the test with EKVX, 99.3 µM (inactive); in the test on HOP-62, 71.3 µM (inactive); in the test with IGROV-1, > 100 µM (inactive). The GI50 in the test on MCF7 was > 100 µM (inactive); in the test with MDA-MB-435 it was > 100 µM (inactive); with PC-3 it was 91.6 µM (inactive); in the test with RXF 393, 23.9 µM (inactive); in the test with SF-539, > 100 µM (inactive); with SK-MEL-28, > 100 µM (inactive). The GI50 in the test with T47D is 26 µM (inactive); in the test on U-251, > 100 µM (inactive); in the test on UO-31 it was 78 µM (inactive).

For the compound `CC(C)(C)NC1C2CCC(C)(C1O)C2(C)C` (configuration not stated), the GI50 in the test on BT-549, with COLO 205, in the test with DU-145, in the test with EKVX, in the test with HOP-62 and in the test with HT-29 was > 100 µM (inactive) in each case. Further, the GI50 in the test on IGROV-1 is > 100 µM (inactive); in the test on LOX IMVI it was > 100 µM (inactive); in the test on MCF7, 4.14 µM (inactive); in the test on MDA-MB-435, > 100 µM (inactive); in the test on OVCAR-4, > 100 µM (inactive); in the test with PC-3, > 100 µM (inactive). The GI50 in the test on RXF 393, in the test on SF-539, in the test with SK-MEL-28, in the test on T47D, in the test with U-251 and in the test with UO-31 was > 100 µM (inactive) each time.

For `COc1ccc(N2CCN(Cc3c(C(C)=O)[n+]([O-])c4ccccc4[n+]3[O-])CC2)cc1`, the GI50 in the test on BT-549 was 17 µM (inactive); in the test with COLO 205, 60.8 µM (inactive); with DU-145, > 100 µM (inactive); in the test with EKVX it was 75.3 µM (inactive); in the test on HL-60, > 100 µM (inactive); in the test with HOP-62, 16.4 µM (inactive). For the same compound, the GI50 in the test with HT-29 is 45.6 µM (inactive); in the test with IGROV-1 it was 32.4 µM (inactive); with LOX IMVI, 56.4 µM (inactive); with MCF7, 24.2 µM (inactive); in the test on MDA-MB-435 it was 32.6 µM (inactive); in the test on OVCAR-4, 38.3 µM (inactive). Besides, the GI50 in the test with PC-3 is 87.5 µM (inactive); in the test with RXF 393, 17 µM (inactive); in the test on SK-MEL-28 it was 43.3 µM (inactive); in the test on T47D, 57.3 µM (inactive); in the test on U-251 it was 45 µM (inactive); in the test with UO-31, 64.6 µM (inactive).

Consider `COc1cc2cc(C(=O)N3CC(CCl)c4c3cc(NC(=O)C(C)Nc3c([N+](=O)[O-])cc(C(=O)NCCN(C)C)cc3[N+](=O)[O-])c3ccccc43)[nH]c2c(OC)c1OC` (configuration not stated), for which the GI50 with BT-549 is 0.187 µM (active); in the test on COLO 205 it was 0.0515 µM (active); with DU-145, < 0.0182 µM (active); in the test on EKVX it was 0.229 µM (active); with HOP-62 it was 0.0619 µM (active); in the test with HT-29, 0.055 µM (active). In addition, the GI50 is 0.12 µM (active) with IGROV-1; 0.0478 µM (active) with LOX IMVI; 0.0118 µM (active) in the test on MCF7; 0.16 µM (active) in the test with MDA-MB-435; 0.191 µM (active) in the test on OVCAR-4; 0.177 µM (active) in the test with PC-3. Further, the GI50 in the test on SF-539 is 0.0331 µM (active); with SK-MEL-28, 0.123 µM (active); in the test with T47D, 0.046 µM (active); in the test on U-251 it was 0.0178 µM (active); with UO-31 it was 0.451 µM (active).

As for `COc1cccc(/N=N/C(=NNC(=O)c2ccc(C)cc2)c2ccc(N(C)C)cc2)c1`, the GI50 in the test on BT-549 was > 100 µM (inactive); in the test with COLO 205 it was 44.3 µM (inactive); with DU-145 it was > 100 µM (inactive); in the test on EKVX it was > 100 µM (inactive); with HL-60, > 100 µM (inactive); with HT-29, > 100 µM (inactive). The GI50 is > 100 µM (inactive) in the test with IGROV-1; > 100 µM (inactive) in the test on LOX IMVI; > 100 µM (inactive) in the test on MCF7; 21.1 µM (inactive) in the test on MDA-MB-435; > 100 µM (inactive) in the test on OVCAR-4; > 100 µM (inactive) with PC-3. For the same compound, the GI50 in the test with SF-539 is > 100 µM (inactive); in the test with SK-MEL-28, > 100 µM (inactive); in the test on T47D it was 0.832 µM (active); in the test on U-251, > 100 µM (inactive); with UO-31, > 100 µM (inactive).

On to `O=C(/C(Cl)=C/c1ccccc1)c1ccccc1`, for which the GI50 was 2.22 µM (inactive) in the test on BT-549; 2.58 µM (inactive) with COLO 205; 6.32 µM (inactive) in the test on DU-145; 11.2 µM (inactive) in the test with EKVX; 19.2 µM (inactive) with HOP-62; 1.46 µM (inactive) with HT-29. Further, the GI50 was 2.11 µM (inactive) with LOX IMVI; 2.05 µM (inactive) in the test with MCF7; 3.01 µM (inactive) in the test with MDA-MB-435; 4.41 µM (inactive) in the test with OVCAR-4; 2.61 µM (inactive) with PC-3; 2.46 µM (inactive) in the test on RXF 393. The GI50 in the test on SF-539 is 3.03 µM (inactive); in the test on SK-MEL-28, 2.29 µM (inactive); with T47D, 4.07 µM (inactive); in the test on U-251, 4.27 µM (inactive); with UO-31, 2.32 µM (inactive).

Turning to `N#Cc1cccc2c1Sc1ccccc1N2`, the GI50 in the test with BT-549 is 28.4 µM (inactive); in the test on COLO 205 it was 19.8 µM (inactive); with DU-145 it was 40.6 µM (inactive); in the test with EKVX, 19.1 µM (inactive); in the test with HL-60, 27.3 µM (inactive); with HT-29, 32.7 µM (inactive). Further, the GI50 in the test on IGROV-1 is 45.1 µM (inactive); in the test on LOX IMVI, 10.4 µM (inactive); in the test with MCF7, 30.2 µM (inactive); with MDA-MB-435, 27.3 µM (inactive); in the test on PC-3, 14.1 µM (inactive); in the test on RXF 393 it was 3.7 µM (inactive). In addition, the GI50 in the test with SF-539 is 20.4 µM (inactive); in the test with T47D, 19.2 µM (inactive); with U-251 it was 20 µM (inactive); in the test with UO-31 it was 27.1 µM (inactive).

With `COc1cc2ccnc3c2c(c1O)N(C)C=C3`, the GI50 was 9.08 µM (inactive) in the test on BT-549; 20.7 µM (inactive) in the test on COLO 205; 23.7 µM (inactive) in the test with DU-145; 17.4 µM (inactive) with EKVX; 22 µM (inactive) in the test on HOP-62; 6.11 µM (inactive) in the test on IGROV-1. The GI50 in the test with LOX IMVI was 8.39 µM (inactive); in the test on MCF7, 7.35 µM (inactive); in the test with MDA-MB-435, 11.6 µM (inactive); in the test on OVCAR-4 it was 16 µM (inactive); in the test with PC-3 it was 13.8 µM (inactive); with RXF 393 it was 14.3 µM (inactive). Further, the GI50 in the test on SK-MEL-28 is 24.9 µM (inactive); in the test with T47D it was 7.38 µM (inactive); with U-251, 24.9 µM (inactive); in the test with UO-31, 7.66 µM (inactive).

For the origin of these results see ChEMBL document CHEMBL1201862, “PubChem BioAssay data set” (2004).
